Measured values: PMC10175918 (Communications Biology, 2023)
Where two headings read alike, the source gives them in different places.

What was measured:
Assay in all cases: TGFα-shedding assay-based GPCR screening with chimeric Gα subunit proteins
Type in all cases: cell-based
348 GPCRs [1] = biological target: T1, 348 GPCRs (Homo sapiens, UniProt P34998)
T1 construct: expressed in transfected cells; host or cells: HEK293A
T1 sequence (P34998 24-415): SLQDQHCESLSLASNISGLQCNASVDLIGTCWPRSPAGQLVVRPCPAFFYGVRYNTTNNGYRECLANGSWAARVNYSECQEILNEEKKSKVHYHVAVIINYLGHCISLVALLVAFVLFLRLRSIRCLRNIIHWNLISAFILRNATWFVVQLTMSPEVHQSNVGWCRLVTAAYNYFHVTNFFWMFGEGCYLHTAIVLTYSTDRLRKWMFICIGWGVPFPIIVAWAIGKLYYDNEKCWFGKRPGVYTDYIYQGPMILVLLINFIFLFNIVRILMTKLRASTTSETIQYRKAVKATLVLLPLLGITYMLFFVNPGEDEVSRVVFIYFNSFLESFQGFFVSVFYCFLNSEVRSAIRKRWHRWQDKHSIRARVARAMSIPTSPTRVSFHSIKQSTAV

348 GPCRs [2] = biological target: 348 GPCRs (Homo sapiens, UniProt P41146); conditions: 10µM, Favipiravir 100μM
348 GPCRs [3] = biological target: T2, 348 GPCRs (Homo sapiens, UniProt P50406); conditions: 10µM, Favipiravir 100μM
T2 construct: expressed in transfected cells; host or cells: HEK293A

348 GPCRs [4] = biological target: T3, 348 GPCRs (Homo sapiens, UniProt Q15391)
T3 construct: expressed in transfected cells; host or cells: HEK293A
T3 sequence (Q15391 1-338): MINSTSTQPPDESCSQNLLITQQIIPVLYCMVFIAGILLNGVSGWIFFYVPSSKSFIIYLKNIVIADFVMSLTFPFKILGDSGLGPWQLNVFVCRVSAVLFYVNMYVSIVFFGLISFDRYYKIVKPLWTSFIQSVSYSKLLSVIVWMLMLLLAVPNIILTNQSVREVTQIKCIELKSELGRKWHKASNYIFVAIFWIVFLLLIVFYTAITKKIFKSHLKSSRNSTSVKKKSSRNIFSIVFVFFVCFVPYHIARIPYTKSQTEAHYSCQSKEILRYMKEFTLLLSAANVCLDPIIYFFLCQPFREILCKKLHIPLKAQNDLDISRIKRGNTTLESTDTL

348 GPCRs [5] = biological target: T4, 348 GPCRs (Homo sapiens, UniProt Q8IZP9)
T4 construct: expressed in transfected cells; host or cells: HEK293A

348 GPCRs [6] = biological target: T5, 348 GPCRs (Homo sapiens, UniProt Q8TDU6); conditions: 10µM, Favipiravir 100μM
T5 construct: expressed in transfected cells; host or cells: HEK293A
T5 sequence (Q8TDU6 1-330): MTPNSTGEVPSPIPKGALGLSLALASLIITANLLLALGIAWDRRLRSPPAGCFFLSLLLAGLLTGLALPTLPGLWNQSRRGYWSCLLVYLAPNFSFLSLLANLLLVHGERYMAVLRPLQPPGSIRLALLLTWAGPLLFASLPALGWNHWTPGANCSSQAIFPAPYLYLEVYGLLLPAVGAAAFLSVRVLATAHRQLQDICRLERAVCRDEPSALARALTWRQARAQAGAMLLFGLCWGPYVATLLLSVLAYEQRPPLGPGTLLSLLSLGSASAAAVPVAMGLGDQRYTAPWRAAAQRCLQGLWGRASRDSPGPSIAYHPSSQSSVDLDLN

348 GPCRs [7] = biological target: T6, 348 GPCRs (Homo sapiens, UniProt Q9NQ84); conditions: 10µM, Favipiravir 100μM
T6 construct: expressed in transfected cells; host or cells: HEK293A

348 GPCRs [8] = biological target: T7, 348 GPCRs (Homo sapiens, UniProt Q9NYV8); conditions: 10µM, Favipiravir 100μM
T7 construct: expressed in transfected cells; host or cells: HEK293A
T7 sequence (Q9NYV8 1-317): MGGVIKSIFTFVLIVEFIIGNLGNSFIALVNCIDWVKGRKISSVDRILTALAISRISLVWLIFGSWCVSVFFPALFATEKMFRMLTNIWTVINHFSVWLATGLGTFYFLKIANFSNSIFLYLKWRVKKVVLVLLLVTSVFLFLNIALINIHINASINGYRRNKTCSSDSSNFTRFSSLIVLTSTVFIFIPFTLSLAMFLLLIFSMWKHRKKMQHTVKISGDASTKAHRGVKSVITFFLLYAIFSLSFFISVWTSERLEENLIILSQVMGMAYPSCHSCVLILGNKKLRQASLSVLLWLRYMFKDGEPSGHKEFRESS

348 GPCRs [9] = biological target: T8, 348 GPCRs (Homo sapiens, UniProt Q9NYW4); conditions: 10µM, Favipiravir 100μM
T8 construct: expressed in transfected cells; host or cells: HEK293A
T8 sequence (Q9NYW4 1-299): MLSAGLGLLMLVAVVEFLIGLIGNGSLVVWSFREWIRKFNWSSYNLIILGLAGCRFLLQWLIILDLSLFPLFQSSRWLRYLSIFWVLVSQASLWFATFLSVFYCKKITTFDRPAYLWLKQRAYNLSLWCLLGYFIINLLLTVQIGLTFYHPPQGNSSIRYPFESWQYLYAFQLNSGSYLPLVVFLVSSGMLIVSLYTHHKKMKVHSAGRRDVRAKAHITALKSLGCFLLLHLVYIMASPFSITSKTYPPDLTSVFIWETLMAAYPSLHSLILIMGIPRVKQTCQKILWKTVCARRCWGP

[10] = GPCR CRHR1 (corticotropin releasing hormone receptor 1), read-out: % GPCR activation compared to TPA
[11] = OPRL1 (opioid Related Nociceptin Receptor 1), read-out: % GPCR activation compared to TPA
[12] = 5-HT6 (5-hydroxytryptamine receptor 6), read-out: % GPCR activation compared to TPA
[13] = GPCR P2Y14 (purinergic receptor P2Y, G-protein coupled, 14), read-out: % GPCR activation compared to TPA
[14] = GPCR GPR64 (G protein-coupled receptor 64), read-out: % GPCR activation compared to TPA
[15] = GPBA (G protein-coupled bile acid receptor 1), read-out: % GPCR activation compared to TPA
[16] = GPRC5C (G protein-coupled receptor, family C, group 5, member C), read-out: % GPCR activation compared to TPA
[17] = TAS2R14 (taste receptor, type 2, member 14), read-out: % GPCR activation compared to TPA
[18] = TAS2R5 (taste receptor, type 2, member 5), read-out: % GPCR activation compared to TPA
[19] = read-out: % GPCR activation compared to TPA, GPCR CRHR1 (corticotropin releasing hormone receptor 1)
[20] = read-out: % GPCR activation compared to TPA, OPRL1 (opioid Related Nociceptin Receptor 1)
[21] = read-out: % GPCR activation compared to TPA, 5-HT6 (5-hydroxytryptamine receptor 6)
[22] = read-out: % GPCR activation compared to TPA, GPCR P2Y14 (purinergic receptor P2Y, G-protein coupled, 14)
[23] = read-out: % GPCR activation compared to TPA, GPCR GPR64 (G protein-coupled receptor 64)
[24] = read-out: % GPCR activation compared to TPA, GPBA (G protein-coupled bile acid receptor 1)
[25] = read-out: % GPCR activation compared to TPA, GPRC5C (G protein-coupled receptor, family C, group 5, member C)
[26] = read-out: % GPCR activation compared to TPA, TAS2R14 (taste receptor, type 2, member 14)
[27] = read-out: % GPCR activation compared to TPA, TAS2R5 (taste receptor, type 2, member 5)

T2 sequence (P50406 whole entry): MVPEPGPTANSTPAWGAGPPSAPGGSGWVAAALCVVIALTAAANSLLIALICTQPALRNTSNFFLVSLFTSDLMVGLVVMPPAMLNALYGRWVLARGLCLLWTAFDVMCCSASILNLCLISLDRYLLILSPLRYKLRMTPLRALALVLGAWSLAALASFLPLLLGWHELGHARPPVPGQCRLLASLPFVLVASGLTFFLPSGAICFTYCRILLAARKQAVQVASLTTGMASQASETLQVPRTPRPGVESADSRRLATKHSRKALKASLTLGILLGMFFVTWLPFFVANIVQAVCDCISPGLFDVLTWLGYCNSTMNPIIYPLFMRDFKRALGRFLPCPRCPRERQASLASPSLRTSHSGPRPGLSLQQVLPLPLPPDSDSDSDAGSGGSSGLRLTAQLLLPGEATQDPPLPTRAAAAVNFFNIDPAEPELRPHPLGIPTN
Chain of 348 GPCRs (Homo sapiens, UniProt P41146) (P41146 whole entry): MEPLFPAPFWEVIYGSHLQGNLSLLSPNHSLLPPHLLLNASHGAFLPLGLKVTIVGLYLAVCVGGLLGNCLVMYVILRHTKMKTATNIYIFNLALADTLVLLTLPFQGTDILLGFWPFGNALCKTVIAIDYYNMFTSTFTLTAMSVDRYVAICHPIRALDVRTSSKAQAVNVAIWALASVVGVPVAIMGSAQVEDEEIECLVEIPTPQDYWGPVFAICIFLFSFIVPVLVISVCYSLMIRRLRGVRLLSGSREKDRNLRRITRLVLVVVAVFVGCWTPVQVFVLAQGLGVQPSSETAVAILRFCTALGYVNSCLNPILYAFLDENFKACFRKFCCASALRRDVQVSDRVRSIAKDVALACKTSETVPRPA
T4 sequence (Q8IZP9 38-1017): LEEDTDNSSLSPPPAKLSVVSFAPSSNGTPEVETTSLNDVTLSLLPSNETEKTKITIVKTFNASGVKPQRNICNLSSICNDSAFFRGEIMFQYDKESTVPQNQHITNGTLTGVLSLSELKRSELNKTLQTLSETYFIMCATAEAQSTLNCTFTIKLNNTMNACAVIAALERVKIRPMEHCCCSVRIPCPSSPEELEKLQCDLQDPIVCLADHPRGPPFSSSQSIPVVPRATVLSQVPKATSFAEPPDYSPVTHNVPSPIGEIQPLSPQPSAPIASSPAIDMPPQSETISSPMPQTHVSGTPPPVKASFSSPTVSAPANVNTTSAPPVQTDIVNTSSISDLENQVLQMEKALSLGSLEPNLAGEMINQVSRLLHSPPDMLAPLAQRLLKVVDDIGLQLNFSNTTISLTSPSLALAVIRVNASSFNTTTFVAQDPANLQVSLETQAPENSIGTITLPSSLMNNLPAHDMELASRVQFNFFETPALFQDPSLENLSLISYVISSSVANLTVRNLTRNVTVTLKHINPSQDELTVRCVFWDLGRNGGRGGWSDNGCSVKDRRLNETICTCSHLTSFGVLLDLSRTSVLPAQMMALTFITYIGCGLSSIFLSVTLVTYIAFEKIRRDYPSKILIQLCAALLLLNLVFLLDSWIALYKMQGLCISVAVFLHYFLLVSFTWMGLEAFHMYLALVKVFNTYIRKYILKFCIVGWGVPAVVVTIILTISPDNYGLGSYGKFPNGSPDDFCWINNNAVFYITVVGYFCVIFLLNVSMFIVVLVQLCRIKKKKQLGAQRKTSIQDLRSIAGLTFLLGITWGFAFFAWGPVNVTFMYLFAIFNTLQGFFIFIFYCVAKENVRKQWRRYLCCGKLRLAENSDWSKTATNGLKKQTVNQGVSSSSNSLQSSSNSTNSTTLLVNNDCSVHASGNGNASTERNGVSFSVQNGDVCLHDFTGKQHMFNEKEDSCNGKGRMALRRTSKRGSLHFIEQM
T6 sequence (Q9NQ84 24-441): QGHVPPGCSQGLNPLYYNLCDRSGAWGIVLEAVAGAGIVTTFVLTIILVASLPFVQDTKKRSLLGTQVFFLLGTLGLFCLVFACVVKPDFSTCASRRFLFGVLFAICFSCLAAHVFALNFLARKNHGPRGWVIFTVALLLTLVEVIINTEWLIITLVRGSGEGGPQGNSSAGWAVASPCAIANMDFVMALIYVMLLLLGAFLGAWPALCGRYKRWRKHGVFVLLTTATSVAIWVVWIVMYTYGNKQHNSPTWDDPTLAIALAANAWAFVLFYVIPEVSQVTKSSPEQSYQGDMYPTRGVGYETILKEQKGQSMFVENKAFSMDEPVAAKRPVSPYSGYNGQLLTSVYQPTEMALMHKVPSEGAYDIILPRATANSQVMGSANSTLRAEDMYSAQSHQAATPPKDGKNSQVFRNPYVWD

SMILES | activation at 10 µM (348 GPCRs [1]; [10]) [%] | activation at 10 µM (348 GPCRs [2]; [11]) [%] | activation at 100 µM (348 GPCRs [3]; [12]) [%] | activation at 10 µM (348 GPCRs [4]; [13]) [%] | activation at 10 µM (348 GPCRs [5]; [14]) [%] | activation at 10 µM (348 GPCRs [6]; [15]) [%] | activation at 100 µM (348 GPCRs [7]; [16]) [%] | activation at 100 µM (348 GPCRs [8]; [17]) [%] | activation at 100 µM (348 GPCRs [9]; [18]) [%] | activation at 10 µM (348 GPCRs [1]; [19]) [%] | activation at 10 µM (348 GPCRs [2]; [20]) [%] | activation at 100 µM (348 GPCRs [3]; [21]) [%] | activation at 10 µM (348 GPCRs [4]; [22]) [%] | activation at 10 µM (348 GPCRs [5]; [23]) [%] | activation at 10 µM (348 GPCRs [6]; [24]) [%] | activation at 100 µM (348 GPCRs [7]; [25]) [%] | activation at 100 µM (348 GPCRs [8]; [26]) [%] | activation at 100 µM (348 GPCRs [9]; [27]) [%] | further results
NC(=O)c1nc(F)cnc1O [favipiravir, 6-fluoro-3-hydroxy-2-pyrazinecarboxamide] | – | -1.44 | -1.66 | – | – | 0.241 | -1.31 | 0.627 | 2.49 | – | – | – | – | – | – | – | – | – | activation at 100 µM (348 GPCRs [1]; GPCR CRHR1 (corticotropin releasing hormone receptor 1), 100μM, read-out: % GPCR activation compared to TPA): -0.37%; activation at 100 µM (348 GPCRs [4]; GPCR P2Y14 (purinergic receptor P2Y, G-protein coupled, 14), 100μM, read-out: % GPCR activation compared to TPA): 5.36%; activation at 100 µM (348 GPCRs [5]; GPCR GPR64 (G protein-coupled receptor 64), 100μM, read-out: % GPCR activation compared to TPA): -2.31%
CCC(CC)COC(=O)[C@H](C)N[P@](=O)(OC[C@H]1O[C@@](C#N)(c2ccc3c(N)ncnn23)[C@H](O)[C@@H]1O)Oc1ccccc1 [remdesivir] | – | – | – | – | – | – | – | – | – | 2.05 | -1.46 | 0.785 | 8.52 | -4.08 | -1.26 | -1.81 | -1.51 | 3.92 | –
CC(C)OC(=O)[C@H](C)N[P@](=O)(OC[C@H]1O[C@@H](n2ccc(=O)[nH]c2=O)[C@](C)(F)[C@@H]1O)Oc1ccccc1 [sofosbuvir] | – | – | – | – | – | – | – | – | – | 1.15 | 0.297 | -1.12 | 0.966 | -7.7 | -0.805 | -0.501 | -1.26 | -1.2 | –

Further lines, with some results ahead:

activation at 10 µM (348 GPCRs [1]; [10]) [%] | activation at 10 µM (348 GPCRs [2]; [11]) [%] | activation at 100 µM (348 GPCRs [3]; [12]) [%] | activation at 10 µM (348 GPCRs [4]; [13]) [%] | activation at 10 µM (348 GPCRs [5]; [14]) [%] | activation at 10 µM (348 GPCRs [6]; [15]) [%] | activation at 100 µM (348 GPCRs [7]; [16]) [%] | activation at 100 µM (348 GPCRs [8]; [17]) [%] | activation at 100 µM (348 GPCRs [9]; [18]) [%] | SMILES | activation at 10 µM (348 GPCRs [1]; [19]) [%] | activation at 10 µM (348 GPCRs [2]; [20]) [%] | activation at 100 µM (348 GPCRs [3]; [21]) [%] | activation at 10 µM (348 GPCRs [4]; [22]) [%] | activation at 10 µM (348 GPCRs [5]; [23]) [%] | activation at 10 µM (348 GPCRs [6]; [24]) [%] | activation at 100 µM (348 GPCRs [7]; [25]) [%] | activation at 100 µM (348 GPCRs [8]; [26]) [%] | activation at 100 µM (348 GPCRs [9]; [27]) [%] | further results
0.467 | -0.87 | -0.422 | 4.97 | -4.34 | -1.79 | -1 | -2.2 | 0.212 | N#C[C@@]1(c2ccc3c(N)ncnn23)O[C@H](CO)[C@@H](O)[C@H]1O [GS441524] | – | – | – | – | – | – | – | – | – | –
1.11 | -2.5 | -0.864 | 0.0147 | -5.62 | -1.97 | -0.707 | -1.82 | -0.247 | CC(C)C(=O)OC[C@H]1O[C@@H](n2ccc(NO)nc2=O)[C@H](O)[C@@H]1O [molnupiravir] | – | – | – | – | – | – | – | – | – | –
